US12692223B2, “Phenyl-sulfamoyl-benzoic acid derivatives as ERAP1-modulators” (GREY WOLF THERAPEUTICS LIMITED, priority 2021, dated 2026)

target: T1, ERAP1 (Homo sapiens, UniProt Q9NZ08); assay: ERAP1 mediated hydrolysis of an amide substrate measured in a biochemical system (10-mer inhibition assay); conditions: purified ERAP1(37-941)-10His; 10-mer substrate; 23° C. for 1 h; excitation 279 nm, emission 355 nm; read-out: IC50 vs Decapeptide WRVYEKC(Dnp)ALK-acid (where Dnp is Dinitrophenyl maleimide) (10-mer)
T1 construct: Purified ERAP1(37-941)-10His (ERAP1)
Description: Biological Assay 1: ERAP1 Mediated Hydrolysis of an Amide Substrate Measured in a Biochemical System
• 1× Assay buffer (AB): 25 mM Bis-tris propane, 0.05% w/v • Hydroxypropylmethylcellulose pH 7.75 made with Optima grade water • Decapeptide WRVYEKC(Dnp)ALK-acid (where Dnp is Dinitrophenyl maleimide) (10-mer) • L-Leucine 7-amido-4-methylcoumarin (L-AMC) • Purified ERAP1(37-941)-10His (ERAP1) Assay Procedure:
12.5 μL ERAP1 enzyme in 1×AB was combined with 250 nL test compound in DMSO. 12.5 μL of either 240 μM L-AMC in 1×AB or 100 μM 10-mer in 1×AB was added to the reaction and incubated at 23° C. for 1 h. For detection, plates were read at excitation 365 nm and emission 442 nm (L-AMC) or excitation 279 nm and emission 355 nm (10-mer). Compound IC50 was determined using a 4-parameter equation.

T1 sequence (Q9NZ08 37-941): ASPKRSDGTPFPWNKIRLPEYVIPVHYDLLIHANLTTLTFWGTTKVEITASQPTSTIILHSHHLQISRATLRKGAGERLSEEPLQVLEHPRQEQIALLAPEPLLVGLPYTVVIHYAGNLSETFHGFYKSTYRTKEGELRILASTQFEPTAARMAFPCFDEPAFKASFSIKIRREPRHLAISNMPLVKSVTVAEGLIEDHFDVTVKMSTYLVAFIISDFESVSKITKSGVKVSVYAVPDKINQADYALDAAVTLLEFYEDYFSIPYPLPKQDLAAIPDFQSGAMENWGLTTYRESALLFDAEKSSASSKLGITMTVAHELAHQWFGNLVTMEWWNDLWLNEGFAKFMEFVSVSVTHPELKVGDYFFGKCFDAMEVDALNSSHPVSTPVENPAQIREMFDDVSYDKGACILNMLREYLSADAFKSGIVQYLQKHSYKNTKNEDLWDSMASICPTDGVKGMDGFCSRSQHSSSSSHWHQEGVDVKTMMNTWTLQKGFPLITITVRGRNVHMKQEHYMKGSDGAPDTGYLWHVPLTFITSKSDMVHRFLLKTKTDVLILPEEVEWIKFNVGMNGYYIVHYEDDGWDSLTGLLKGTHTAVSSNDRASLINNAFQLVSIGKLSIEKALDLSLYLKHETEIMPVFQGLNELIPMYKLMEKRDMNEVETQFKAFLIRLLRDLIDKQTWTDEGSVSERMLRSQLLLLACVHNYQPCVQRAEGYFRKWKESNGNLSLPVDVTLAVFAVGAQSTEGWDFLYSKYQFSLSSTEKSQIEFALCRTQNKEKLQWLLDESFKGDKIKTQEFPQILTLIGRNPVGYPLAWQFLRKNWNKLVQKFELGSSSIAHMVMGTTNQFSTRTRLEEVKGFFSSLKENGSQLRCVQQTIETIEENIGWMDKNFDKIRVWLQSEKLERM

SMILES | IC50 [nM]
CC1(C)CC(COc2cc(Cl)c(C#N)cc2NS(=O)(=O)c2cc(C(=O)O)ccc2C2CC2)C1 [Example 75, 3-(N-(4-chloro-5-cyano-2-((3,3-dimethylcyclobutyl)methoxy)phenyl)sulfamoyl)-4-cyclopropylbenzoic acid] | 1 to 5
CO[C@H]1C[C@@H](Oc2cc(Cl)c(C#N)cc2NS(=O)(=O)c2cc(C(=O)O)ccc2C2CC2)C1 [Example 68, 3-(N-(4-chloro-5-cyano-2-(cis-3-methoxycyclobutoxy)phenyl)sulfamoyl)-4-cyclopropylbenzoic acid] | 1 to 5
CC1CC(Oc2cc(Cl)c(C#N)cc2NS(=O)(=O)c2cc(C(=O)O)ccc2C2CC2)C1 (single isomer, unassigned) [Example 114, 3-(N-(4-chloro-5-cyano-2-(3-methylcyclobutoxy)phenyl)sulfamoyl)-4-cyclopropylbenzoic acid] | < 1
N#Cc1cc(NS(=O)(=O)c2cc(C(=O)O)ccc2C2CC2)c(OC2CCC23CCC3)cc1Cl (single isomer, unassigned) [Example 92, 3-(N-(4-chloro-5-cyano-2-(spiro[3.3]heptan-1-yloxy)phenyl)sulfamoyl)-4-cyclopropylbenzoic acid] | < 1
CC1(C)CCC[C@@H]1Oc1cc(Cl)c(C#N)cc1NS(=O)(=O)c1cc(C(=O)O)ccc1C1CC1 [Example 57, (S)−3-(N-(4-chloro-5-cyano-2-((2,2-dimethylcyclopentyl)oxy)phenyl)sulfamoyl)-4-cyclopropylbenzoic acid] | < 1
CCc1ccc(C(=O)O)cc1S(=O)(=O)Nc1cc(C(F)(F)F)ccc1OC1CCC1 [Example 7, 3-(N-(2-cyclobutoxy-5-(trifluoromethyl)phenyl)sulfamoyl)-4-ethylbenzoic acid] | > 5
N#Cc1cc(NS(=O)(=O)c2cc(C(=O)O)cc(F)c2C2CC2)c(OC2CCCC2)cc1Cl [Example 18, 3-(N-(4-chloro-5-cyano-2-(cyclopentyloxy)phenyl)sulfamoyl)-4-cyclopropyl-5-fluorobenzoic acid] | < 1
COC1CCCC1Oc1cc(Cl)c(C#N)cc1NS(=O)(=O)c1cc(C(=O)O)ccc1C1CC1 (racemic) [Example 102, 3-(N-(4-chloro-5-cyano-2-((cis-2-methoxycyclopentyl)oxy)phenyl)sulfa-moyl)-4-cyclopropylbenzoic acid] | < 1
O=C(O)c1ccc(C2CC2)c(S(=O)(=O)Nc2cc(-c3ccns3)ccc2OC2CCCC2)c1 [Example 20, 3-(N-(2-(cyclopentyloxy)-5-(isothiazol-5-yl)phenyl)sulfamoyl)-4-cyclopropylbenzoic acid] | < 1
O=C(O)c1ccc(C2CC2)c(S(=O)(=O)Nc2cc(C(F)(F)F)ccc2OC2CCCC2)c1 [Example 4, 3-(N-(2-(cyclopentyloxy)^−5-(trifluoromethyl)phenyl)sulfamoyl)-4-cyclopropylbenzoic acid] | 1 to 5
Cc1oncc1-c1cc(NS(=O)(=O)c2cc(C(=O)O)ccc2C2CC2)c(OC2CCCC2)cc1Cl [Example 25, 3-(N-(4-chloro-2-(cyclopentyloxy)−5-(5-methylisoxazol-4-yl)phenyl)sulfamoyl)-4-cyclopropylbenzoic acid] | < 1
Cc1oncc1-c1cc(NS(=O)(=O)c2cc(C(=O)O)ccc2C2CC2)c(OC2CCCC2)cc1F [Example 24, 3-(N-(2-(cyclopentyloxy)-4-fluoro-5-(5-methylisoxazol-4-yl)phenyl)sulfamoyl)-4-cyclopropylbenzoic acid] | < 1
CC1CCC1Oc1cc(Cl)c(C#N)cc1NS(=O)(=O)c1cc(C(=O)O)ccc1C1CC1 (single isomer, unassigned) [Example 122, 3-(N-(4-chloro-5-cyano-2-(2-methylcyclobutoxy)phenyl)sulfamoyl)-4-cyclopropylbenzoic acid] | 1 to 5
N#Cc1cc(NS(=O)(=O)c2cc(C(=O)O)ccc2C2CC2)c(OC2CC(F)(F)C2)cc1Cl [Example 13, 3-(N-(4-chloro-5-cyano-2-(3,3-difluorocyclobutoxy)phenyl)sulfamoyl)-4-cyclopropylbenzoic acid] | 1 to 5
N#Cc1cc(NS(=O)(=O)c2cc(C(=O)O)ccc2C2CC2)c(OCC2COC2)cc1Cl [Example 36, 3-(N-(4-chloro-5-cyano-2-(oxetan-3-ylmethoxy)phenyl)sulfamoyl)-4-cyclopropylbenzoic acid] | 1 to 5
CC1(C)CC(C)(C)C1Oc1cc(Cl)c(C#N)cc1NS(=O)(=O)c1cc(C(=O)O)ccc1C1CC1 [Example 101, 3-(N-(4-chloro-5-cyano-2-(2,2,4,4-tetramethylcyclo-butoxy)phenyl)sulfamoyl)-4-cyclopropylbenzoic acid] | > 5

SMILES | IC50 [nM]
COC1CCC1Oc1cc(Cl)c(C#N)cc1NS(=O)(=O)c1cc(C(=O)O)ccc1C1CC1 (single isomer, unassigned) [Example 145, 3-(N-(4-chloro-5-cyano-2-(cis-2-methoxycyclobutoxy)phenyl)sulfamoyl)-4-cyclopropylbenzoic acid] | 1 to 5
N#Cc1cc(NS(=O)(=O)c2cc(C(=O)O)ccc2C2CC2)c(OC2CCC2O)cc1Cl (single isomer, unassigned) [Example 128, 3-(N-(4-chloro-5-cyano-2-(trans-2-hydroxycyclobutoxy)phenyl)sulfamoyl)-4-cyclopropylbenzoic acid] | < 1
COc1ccc(C(=O)O)cc1S(=O)(=O)Nc1cc(C(F)(F)F)ccc1OC1CCCC1 [Example 2, 3-(N-(2-(cyclopentyloxy)^−5-(trifluoromethyl)phenyl)sulfamoyl)-4-methoxybenzoic acid] | > 5
C[C@H](Oc1cc(Cl)c(C#N)cc1NS(=O)(=O)c1cc(C(=O)O)ccc1C1CC1)C1CCC1 [Example 70, (S)-3-(N-(4-chloro-5-cyano-2-(1-cyclobutylethoxy)phenyl)sulfamoyl)-4-cyclopropylbenzoic acid] | < 1
N#Cc1cc(NS(=O)(=O)c2cc(C(=O)O)ccc2C2CC2)c(O[C@@H]2C[C@@H]3C[C@@H]3C2)cc1Cl [Example 41, Cis-3-(N-(2-(bicyclo[3.1.0]hexan-3-yloxy)− 4-chloro-5-cyanophenyl)sulfamoyl)-4-cyclopropylbenzoic acid] | < 1
N#Cc1cc(NS(=O)(=O)c2cc(C(=O)O)ccc2C2CC2)c(OC2CCC2O)cc1Cl (racemic) [Example 118, 3-(N-(4-chloro-5-cyano-2-(trans-2-hydroxycyclobutoxy)phenyl)sulfamoyl)-4-cyclopropylbenzoic acid] | < 1
N#Cc1cc(NS(=O)(=O)c2cc(C(=O)O)ccc2C2CC2)c(OC2CCC2O)cc1Cl (single isomer, unassigned) [Example 129, 3-(N-(4-chloro-5-cyano-2-(trans-2-hydroxycyclobutoxy)phenyl)sulfamoyl)-4-cyclopropylbenzoic acid] | > 5
N#Cc1cc(Cl)c(OC2CCCC2)c(NS(=O)(=O)c2cc(C(=O)O)ccc2C2CC2)c1 [Example 19, 3-(N-(3-chloro-5-cyano-2-(cyclopentyloxy)phenyl)sulfamoyl)-4-cyclopropylbenzoic acid] | 1 to 5
O=C(O)c1ccc(C2CC2)c(S(=O)(=O)Nc2cc(-c3ccns3)c(Cl)cc2OC2CC(F)(F)C2)c1 [Example 50, 3-(N-(4-chloro-2-(3,3-difluorocyclobutoxy)-5-(isothiazol-5-yl)phenyl)sulfamoyl)-4-cyclopropylbenzoic acid] | < 1
CC1(C)CCC1Oc1cc(Cl)c(C#N)cc1NS(=O)(=O)c1cc(C(=O)O)ccc1C1CC1 (centres unmarked) [Example 80, 3-(N-(4-chloro-5-cyano-2-(2,2-dimethylcyclobutoxy)phenyl)sulfamoyl)-4-cyclopropylbenzoic acid] | < 1
N#Cc1cc(NS(=O)(=O)c2cc(C(=O)O)ccc2C2CC2)c(O[C@H]2CCOC2)cc1Cl [Example 49, (S)-3-(N-(4-chloro-5-cyano-2-((tetrahydrofuran-3-yl)oxy)phenyl)sulfamoyl)-4-cyclopropylbenzoic acid] | 1 to 5
Cc1oncc1-c1ccc(OC2CCCC2)c(NS(=O)(=O)c2cc(C(=O)O)ccc2C2CC2)c1 [Example 23, 3-(N-(2-(cyclopentyloxy)-5-(5-methylisoxazol-4-yl)phenyl)sulfamoyl)-4-cyclopropylbenzoic acid] | < 1
CO[C@H]1C[C@H](Oc2cc(Cl)c(C#N)cc2NS(=O)(=O)c2cc(C(=O)O)ccc2C2CC2)C1 [Example 95, 3-(N-(4-chloro-5-cyano-2-(trans-3-methoxycyclobutoxy)phenyl)sulfamoyl)-4-cyclopropylbenzoic acid] | > 5
N#Cc1cc(NS(=O)(=O)c2cc(C(=O)O)ccc2C2CC2)c(OCC23CC(C2)C3)cc1Cl [Example 76, 3-(N-(2-(bicyclo[1.1.1]pentan-1-ylmethoxy)− 4-chloro-5-cyanophenyl)sulfamoyl)-4-cyclopropylbenzoic acid] | < 1
N#Cc1cc(NS(=O)(=O)c2cc(C(=O)O)ccc2C2CC2)c(OC2CC3(COC3)C2)cc1Cl [Example 52, 3-(N-(2-((2-oxaspiro[3.3]heptan-6-yl)oxy)-4-chloro-5-cyanophenyl)sulfamoyl)-4-cyclopropylbenzoic acid] | > 5
CC(Oc1cc(Cl)c(C#N)cc1NS(=O)(=O)c1cc(C(=O)O)ccc1C1CC1)C1COC1 (centres unmarked) [Example 45, 3-(N-(4-chloro-5-cyano-2-(1-(oxetan-3-yl)ethoxy)phenyl)sulfamoyl)-4-cyclopropylbenzoic acid] | 1 to 5
